From US12128064B1, “Polysilane methacrylic compounds and methods of making them” (Zetagen Therapeutics, Inc., priority 2024, dated 2024)

Tested on: BT-474 breast cancer cells
Test: Toxicity of the Compound (IVa) polymer in BT-474 cultures
Type: cell-based
Conditions: 24-hours
Procedure: The small molecule, N-allyl noroxymorphone hydrochloride, was added to Compound IVa (SiH3—[SiH2]n—SiH2—[C5H7O2]n with Ca10(PO4)6(OH)2) at a concentration of 0.4-mg N-allyl noroxymorphone/mg of Compound IVa. Then the MAGE-Polymerization Initiator Solution containing the vinyl monomer vinyl methacrylate was added in a ratio of 2:1. The material—with N-allyl noroxymorphone hydrochloride—was then polymerized and added to cultures of BT-474 breast cancer cells. Cultures were also treated with N-allyl noroxymorphone hydrochloride alone. Control cultures received no treatment.

With C=CCN1CC[C@]23c4c5ccc(O)c4O[C@H]2C(=O)CC[C@@]3(O)[C@H]1C5.Cl [N-allyl noroxymorphone hydrochloride] the “Decrease in cell number relative to Control Cultures” value was 59.7%.
